melting point: 228 to 230 °C
SMILES: COC(=O)c1ccc(Oc2ccc(NC(=O)Nc3ccc(Cl)c(C(F)(F)F)c3)cc2)cn1 [Entry 55, N-(4-chloro-3-(trifluoromethyl)phenyl)-N′-(4-(2-(methoxycarbonyl)-5-pyridyloxy)phenyl) urea]

From patent US20030207872A1, “OMEGA-CARBOXYARYL SUBSTITUTED DIPHENYL UREAS AS RAF KINASE INHIBITORS” (BAYER CORPORATION, priority 2002, published 2003)
